Reference: paper PMC12406203 (Journal of Medicinal Chemistry, 2025)

How the values were obtained:
Experiment in all cases: KINOMEscan
Assay type in all cases: binding
MEK1 = target: T1, MEK1 (Homo sapiens, UniProt Q02750)
T1 construct: purchased Eurofins DiscoverX, LLC; host or cells: E. coli (BL21-derived, T7 phage) or HEK-293

AURKB = target: T2, AURKB (Homo sapiens, UniProt Q96GD4)
T2 construct: purchased Eurofins DiscoverX, LLC; host or cells: E. coli BL21-derived (T7 phage) or HEK-293

BMPR2 = target: T3, BMPR2 (Homo sapiens, UniProt Q13873)
T3 construct: purchased Eurofins DiscoverX, LLC; host or cells: E. coli BL21-derived (T7 phage) or HEK-293
T3 sequence (Q13873 27-1038): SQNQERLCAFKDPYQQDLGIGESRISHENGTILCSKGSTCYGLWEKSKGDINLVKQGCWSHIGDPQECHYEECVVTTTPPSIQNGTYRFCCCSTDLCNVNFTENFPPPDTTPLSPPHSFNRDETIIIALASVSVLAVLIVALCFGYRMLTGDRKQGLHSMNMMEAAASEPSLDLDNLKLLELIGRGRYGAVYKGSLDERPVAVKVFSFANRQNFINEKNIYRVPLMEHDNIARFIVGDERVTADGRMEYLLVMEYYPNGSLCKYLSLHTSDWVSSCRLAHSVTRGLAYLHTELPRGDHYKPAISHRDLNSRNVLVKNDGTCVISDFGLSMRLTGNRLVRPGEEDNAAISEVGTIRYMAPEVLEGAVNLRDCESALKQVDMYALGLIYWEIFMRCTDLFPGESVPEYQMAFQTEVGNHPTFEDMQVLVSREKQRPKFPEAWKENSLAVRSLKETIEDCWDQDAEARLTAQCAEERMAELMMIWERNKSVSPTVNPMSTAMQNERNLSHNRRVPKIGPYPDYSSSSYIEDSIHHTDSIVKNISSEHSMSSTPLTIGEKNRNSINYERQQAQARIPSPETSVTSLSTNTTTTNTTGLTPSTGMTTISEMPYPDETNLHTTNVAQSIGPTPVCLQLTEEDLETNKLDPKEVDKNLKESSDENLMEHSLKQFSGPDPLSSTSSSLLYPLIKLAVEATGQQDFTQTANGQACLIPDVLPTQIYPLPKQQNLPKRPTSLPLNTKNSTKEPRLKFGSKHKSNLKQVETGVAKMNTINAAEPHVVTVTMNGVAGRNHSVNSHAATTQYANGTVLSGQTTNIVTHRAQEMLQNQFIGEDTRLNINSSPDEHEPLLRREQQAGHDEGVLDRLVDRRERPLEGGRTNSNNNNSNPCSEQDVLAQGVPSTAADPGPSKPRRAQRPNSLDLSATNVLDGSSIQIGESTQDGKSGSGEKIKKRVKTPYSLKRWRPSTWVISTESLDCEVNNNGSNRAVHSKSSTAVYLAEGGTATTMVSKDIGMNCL

FAK = target: T4, FAK (Homo sapiens, UniProt Q05397)
T4 construct: purchased Eurofins DiscoverX, LLC; host or cells: E. coli (T7 phage) or HEK-293

RET = target: T5, RET (Homo sapiens, UniProt P07949)
T5 construct: purchased Eurofins DiscoverX, LLC; host or cells: E. coli BL21-derived host (T7 phage) or HEK-293

ACVR1B = target: T6, ACVR1B (Homo sapiens, UniProt P36896)
T6 construct: purchased Eurofins DiscoverX, LLC; host or cells: E. coli BL21-derived (T7 phage) or HEK-293
T6 sequence (P36896 24-505): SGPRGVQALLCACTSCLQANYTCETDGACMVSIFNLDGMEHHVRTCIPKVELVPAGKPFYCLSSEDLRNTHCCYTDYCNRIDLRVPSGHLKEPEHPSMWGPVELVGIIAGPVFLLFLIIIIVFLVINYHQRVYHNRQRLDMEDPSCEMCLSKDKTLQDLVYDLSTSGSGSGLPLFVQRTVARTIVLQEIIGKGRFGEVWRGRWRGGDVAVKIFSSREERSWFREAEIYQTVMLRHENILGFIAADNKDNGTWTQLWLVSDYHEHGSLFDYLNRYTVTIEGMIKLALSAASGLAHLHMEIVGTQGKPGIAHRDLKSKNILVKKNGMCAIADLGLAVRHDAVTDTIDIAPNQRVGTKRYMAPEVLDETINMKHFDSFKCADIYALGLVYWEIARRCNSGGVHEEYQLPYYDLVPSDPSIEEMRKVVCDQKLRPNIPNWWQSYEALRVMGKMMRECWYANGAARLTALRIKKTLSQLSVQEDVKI

ERBB4 = target: T7, ERBB4 (Homo sapiens, UniProt Q15303)
T7 construct: purchased Eurofins DiscoverX, LLC; host or cells: E. coli (T7 phage) or HEK-293

PCTK1 = target: T8, PCTK1 (Homo sapiens, UniProt Q00536)
T8 construct: purchased Eurofins DiscoverX, LLC; host or cells: E. coli BL21-derived host (T7 phage) or HEK-293
T8 sequence (Q00536 whole entry): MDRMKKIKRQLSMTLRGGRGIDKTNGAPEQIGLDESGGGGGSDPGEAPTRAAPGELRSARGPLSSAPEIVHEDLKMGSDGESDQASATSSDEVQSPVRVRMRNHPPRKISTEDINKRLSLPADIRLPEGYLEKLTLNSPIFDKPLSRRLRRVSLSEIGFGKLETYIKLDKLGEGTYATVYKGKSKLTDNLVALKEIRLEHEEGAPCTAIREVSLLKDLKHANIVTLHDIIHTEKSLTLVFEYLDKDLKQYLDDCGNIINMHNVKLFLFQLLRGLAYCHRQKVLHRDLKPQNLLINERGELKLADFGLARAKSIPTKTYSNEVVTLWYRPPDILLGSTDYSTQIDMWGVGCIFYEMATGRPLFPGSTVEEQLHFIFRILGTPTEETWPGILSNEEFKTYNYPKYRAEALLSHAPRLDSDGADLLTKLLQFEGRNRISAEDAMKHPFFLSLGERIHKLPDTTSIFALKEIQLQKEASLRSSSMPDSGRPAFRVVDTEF

T4 sequence (Q05397 whole entry): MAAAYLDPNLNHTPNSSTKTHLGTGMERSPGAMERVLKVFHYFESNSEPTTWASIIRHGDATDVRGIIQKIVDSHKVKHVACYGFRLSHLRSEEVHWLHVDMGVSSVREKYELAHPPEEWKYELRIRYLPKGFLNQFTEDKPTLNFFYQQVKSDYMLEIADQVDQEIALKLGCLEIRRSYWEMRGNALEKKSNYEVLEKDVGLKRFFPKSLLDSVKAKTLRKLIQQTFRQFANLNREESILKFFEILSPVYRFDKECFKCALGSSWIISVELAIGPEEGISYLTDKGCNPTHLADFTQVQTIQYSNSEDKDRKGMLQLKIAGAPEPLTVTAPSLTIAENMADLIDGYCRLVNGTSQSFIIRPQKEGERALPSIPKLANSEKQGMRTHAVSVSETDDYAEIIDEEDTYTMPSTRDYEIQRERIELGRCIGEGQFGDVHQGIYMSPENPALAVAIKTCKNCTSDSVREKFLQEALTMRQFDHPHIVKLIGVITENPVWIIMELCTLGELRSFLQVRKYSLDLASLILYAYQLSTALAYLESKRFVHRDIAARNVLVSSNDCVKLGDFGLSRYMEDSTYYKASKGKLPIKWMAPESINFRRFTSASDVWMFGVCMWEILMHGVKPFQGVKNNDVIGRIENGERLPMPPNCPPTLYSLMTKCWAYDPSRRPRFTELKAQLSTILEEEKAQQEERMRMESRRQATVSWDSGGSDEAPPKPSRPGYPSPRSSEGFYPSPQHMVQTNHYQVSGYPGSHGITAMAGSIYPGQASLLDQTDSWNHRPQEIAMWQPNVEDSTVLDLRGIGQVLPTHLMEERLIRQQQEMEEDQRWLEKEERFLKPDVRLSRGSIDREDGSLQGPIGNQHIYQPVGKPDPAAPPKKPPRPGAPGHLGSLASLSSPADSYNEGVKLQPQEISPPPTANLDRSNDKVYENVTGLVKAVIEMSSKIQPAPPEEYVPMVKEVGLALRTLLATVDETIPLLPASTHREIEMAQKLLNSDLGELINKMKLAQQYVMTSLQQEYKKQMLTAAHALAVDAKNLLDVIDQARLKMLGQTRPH
T7 sequence (Q15303 26-1308): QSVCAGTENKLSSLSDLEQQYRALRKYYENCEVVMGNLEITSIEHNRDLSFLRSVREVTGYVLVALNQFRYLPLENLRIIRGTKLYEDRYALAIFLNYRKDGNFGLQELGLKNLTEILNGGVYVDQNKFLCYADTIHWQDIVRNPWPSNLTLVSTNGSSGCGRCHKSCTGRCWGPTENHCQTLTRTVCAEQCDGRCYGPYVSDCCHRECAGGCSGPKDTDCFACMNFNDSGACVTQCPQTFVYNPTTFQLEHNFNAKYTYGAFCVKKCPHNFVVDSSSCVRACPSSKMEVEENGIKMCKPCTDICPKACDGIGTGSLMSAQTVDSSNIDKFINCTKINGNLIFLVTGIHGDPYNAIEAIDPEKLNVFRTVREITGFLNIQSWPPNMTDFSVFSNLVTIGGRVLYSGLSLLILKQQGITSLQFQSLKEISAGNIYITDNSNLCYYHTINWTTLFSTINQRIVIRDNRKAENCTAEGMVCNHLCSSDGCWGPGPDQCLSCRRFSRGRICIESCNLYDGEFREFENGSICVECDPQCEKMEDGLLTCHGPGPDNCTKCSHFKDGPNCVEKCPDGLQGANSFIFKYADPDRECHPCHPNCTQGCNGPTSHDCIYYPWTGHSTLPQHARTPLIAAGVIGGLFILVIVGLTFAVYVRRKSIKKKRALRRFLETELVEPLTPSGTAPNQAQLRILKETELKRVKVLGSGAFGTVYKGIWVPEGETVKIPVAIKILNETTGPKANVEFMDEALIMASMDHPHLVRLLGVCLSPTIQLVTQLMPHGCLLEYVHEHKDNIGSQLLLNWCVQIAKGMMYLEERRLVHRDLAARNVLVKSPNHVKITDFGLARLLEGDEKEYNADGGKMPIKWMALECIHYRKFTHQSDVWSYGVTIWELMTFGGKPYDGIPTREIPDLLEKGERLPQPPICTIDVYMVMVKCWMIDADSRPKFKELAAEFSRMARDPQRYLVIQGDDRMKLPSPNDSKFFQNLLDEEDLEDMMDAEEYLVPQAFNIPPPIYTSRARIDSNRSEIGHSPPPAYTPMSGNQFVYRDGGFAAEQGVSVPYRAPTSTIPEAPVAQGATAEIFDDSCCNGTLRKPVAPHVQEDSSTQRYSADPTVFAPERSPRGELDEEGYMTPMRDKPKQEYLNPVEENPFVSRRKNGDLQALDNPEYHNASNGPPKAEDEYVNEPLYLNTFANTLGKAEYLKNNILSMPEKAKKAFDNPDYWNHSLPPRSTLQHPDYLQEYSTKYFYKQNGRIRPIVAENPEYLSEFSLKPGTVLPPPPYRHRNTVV
T5 sequence (P07949 29-1114): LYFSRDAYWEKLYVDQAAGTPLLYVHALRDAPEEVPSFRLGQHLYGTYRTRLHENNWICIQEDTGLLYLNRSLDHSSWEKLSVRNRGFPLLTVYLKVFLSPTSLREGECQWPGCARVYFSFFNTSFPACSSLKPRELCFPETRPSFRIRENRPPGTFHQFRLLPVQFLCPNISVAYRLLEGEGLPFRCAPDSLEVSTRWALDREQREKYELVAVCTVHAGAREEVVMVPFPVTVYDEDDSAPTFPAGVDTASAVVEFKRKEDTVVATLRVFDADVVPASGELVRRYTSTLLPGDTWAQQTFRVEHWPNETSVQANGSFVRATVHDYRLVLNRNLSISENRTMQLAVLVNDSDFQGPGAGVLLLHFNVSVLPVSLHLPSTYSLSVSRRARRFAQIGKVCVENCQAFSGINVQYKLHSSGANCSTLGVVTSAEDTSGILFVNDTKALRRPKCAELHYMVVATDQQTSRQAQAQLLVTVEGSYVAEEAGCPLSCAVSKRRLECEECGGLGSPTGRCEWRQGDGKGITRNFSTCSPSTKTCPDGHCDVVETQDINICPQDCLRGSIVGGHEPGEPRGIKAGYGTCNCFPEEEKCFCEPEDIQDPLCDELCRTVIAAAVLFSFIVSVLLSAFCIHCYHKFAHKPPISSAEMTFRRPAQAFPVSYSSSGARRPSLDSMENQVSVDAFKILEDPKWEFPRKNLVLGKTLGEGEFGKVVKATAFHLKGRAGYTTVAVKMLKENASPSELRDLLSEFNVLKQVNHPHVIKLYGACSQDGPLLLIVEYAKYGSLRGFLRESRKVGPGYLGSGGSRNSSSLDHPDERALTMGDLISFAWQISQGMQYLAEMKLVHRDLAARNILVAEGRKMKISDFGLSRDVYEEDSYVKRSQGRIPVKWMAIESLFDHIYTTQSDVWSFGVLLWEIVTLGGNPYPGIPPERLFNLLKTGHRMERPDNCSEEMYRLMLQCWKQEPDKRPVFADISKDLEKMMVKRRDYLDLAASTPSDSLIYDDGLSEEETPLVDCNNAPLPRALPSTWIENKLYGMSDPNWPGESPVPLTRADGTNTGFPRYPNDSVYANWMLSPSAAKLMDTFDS
T1 sequence (Q02750 whole entry): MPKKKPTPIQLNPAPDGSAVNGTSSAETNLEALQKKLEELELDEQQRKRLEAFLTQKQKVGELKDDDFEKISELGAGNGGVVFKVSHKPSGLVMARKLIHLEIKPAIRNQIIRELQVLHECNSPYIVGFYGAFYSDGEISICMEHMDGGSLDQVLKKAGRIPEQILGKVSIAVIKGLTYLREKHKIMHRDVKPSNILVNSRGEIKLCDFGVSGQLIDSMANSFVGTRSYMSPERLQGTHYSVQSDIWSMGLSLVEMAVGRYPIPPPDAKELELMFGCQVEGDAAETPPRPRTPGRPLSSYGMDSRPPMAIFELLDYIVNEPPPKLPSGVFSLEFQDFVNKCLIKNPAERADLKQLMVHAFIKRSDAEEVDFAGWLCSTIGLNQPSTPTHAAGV
T2 sequence (Q96GD4 whole entry): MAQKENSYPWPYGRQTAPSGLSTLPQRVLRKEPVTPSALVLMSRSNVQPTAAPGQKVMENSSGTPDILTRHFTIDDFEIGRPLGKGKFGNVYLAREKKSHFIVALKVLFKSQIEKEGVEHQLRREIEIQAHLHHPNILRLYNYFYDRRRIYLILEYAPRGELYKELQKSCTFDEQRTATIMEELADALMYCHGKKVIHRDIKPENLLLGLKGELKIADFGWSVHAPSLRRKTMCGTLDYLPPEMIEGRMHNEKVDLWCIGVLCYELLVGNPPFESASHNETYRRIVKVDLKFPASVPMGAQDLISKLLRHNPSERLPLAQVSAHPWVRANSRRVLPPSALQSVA

| Compound | RA @ 1000nM (MEK1) [%] | RA @ 10000nM (MEK1) [%] | RA @ 1000nM (AURKB) [%] | RA @ 10000nM (AURKB) [%] | RA @ 1000nM (BMPR2) [%] | RA @ 10000nM (BMPR2) [%] | RA @ 1000nM (FAK) [%] | RA @ 10000nM (FAK) [%] | RA @ 1000nM (RET) [%] | RA @ 10000nM (RET) [%] | RA @ 1000nM (ACVR1B) [%] | RA @ 10000nM (ACVR1B) [%] | RA @ 1000nM (ERBB4) [%] | RA @ 10000nM (ERBB4) [%] | RA @ 1000nM (PCTK1) [%] | RA @ 10000nM (PCTK1) [%] |
| --- | --- | --- | --- | --- | --- | --- | --- | --- | --- | --- | --- | --- | --- | --- | --- | --- |
| CN(C)CCNC(=O)c1cc2c(cnn2CC2CCCCC2)cc1Cc1ccc(F)cc1F [Compound 95, 1-(Cyclohexylmethyl)-5-(2,4-difluorobenzyl)-N-(2-(dimethylamino)ethyl)-1H-indazole-6-carboxamide] | 98 | 100 | 99 | 71 | 89 | 92 | 92 | 94 | 100 | 100 | 100 | 100 | 93 | 81 | 87 | 79 |
| CC(C)Cn1ncc2cc(Cc3ccc(F)cc3F)c(C(=O)NCCN(C)C)cc21 [Compound 94, 5-(2,4-Difluorobenzyl)-N-(2-(dimethylamino)ethyl)-1-isobutyl-1H-indazole-6-carboxamide] | 98 | 74 | 84 | 68 | 86 | 95 | 96 | 89 | 100 | 100 | 100 | 100 | 85 | 83 | 96 | 92 |
